Where two headings read alike, the source gives them in different places.
Tests used:
Crk = settings: SMN2-NSC34 cells
Protocol: (§1) Western blot analysis. Cells treated by dsRNA, compounds or Stat5A1*6 transfected were detached by scraping, pelletting and rinsing in PBS. Cell pellets were collected after centrifugation and lysed on ice in modified RIPA buffer (50 mM Tris-HCl (pH7.4), 1% NP-40, 0.25% deoxycholic acid, 0.15M NaCl, 1 mM EDTA, 1 mM PMSF/NaF/sodium orthovanadate, and protease inhibitors cocktail (Roche, Mannheim, Germany) for 30 min. After centrifugation, the supernatants were collected and kept frozen at −20° C. Protein concentrations were determined by Bio-Rad protein assay method. For Western blot analysis, protein samples were boiled for 5 min and electrophoresed on 8% or 10% SDS-polyacrylamide gel in a 1× running buffer (25 mM Tris, 192 mM glycine, 3.4 mM SDS, pH 8.3) and subsequently electrotransferred to Polyvinylidene Fluoride tansfer membrane (Pall, Pensacola, Fla.) using a TE 22 mini-tank transfer unit (Amersham Biosciences, San Francisco, Calif.) at 35 volts overnight in transfer buffer (25 mM Tris, 192 mM glycine, 20% methanol, pH8.3). The blotting membranes were incubated in blocking solution (PBS, 5% non-fat milk, 0.2% Tween-20) for 1 hour at room temperature, and then incubated in the same solution with the primary antibody (human-specific SMN/1:1000; SMN/1:5000, Transduction Laboratories, Lexington, Ky.; phospho-Stat5a/b/1:1000, Cell signaling, Beverly, Mass.; phospho-Jak2/1:1000, Upstate, Lake Placid, N.Y.; Flag BioM2/1:1000, Sigma, St. Louis, MO; c-myc/1:200, Santa Cruz Biotech, Santa Cruz, Calif.; α-Tubilin/1:10000, Upstate, Lake Placid, N.Y., MO), overnight at 4° C. The membranes were washed and incubated in the blocking solution with the proper HRP-conjugated secondary antibody at 1/5000 dilution (Chemicon, Temecula, Calif.) for 1 hour at room temperature. After washing three times in PBS containing 0.1% Tween-20, the signals were visualized by autoradiography (Fuji Medical X-ray film, Fuji Photos, Tokyo) using enhanced chemi-luminescence (ECL detection system; Perkin-Elmer, Boston, Calif.). Western blot quantification was performed by scanning the auto-radiographs with a computerized densitometer. Signal intensities were determined by densitometry analysis (Fuji film LAS-1000 plus pictography) using the program Phoreticx 1D (Phoreticx International).

GRB14 = settings: SMN2-NSC34 cells
Protocol: as §1

GRB2 = settings: SMN2-NSC34 cells
Protocol: as §1

Jak1 (pY1022/pY1023) = settings: SMN2-NSC34 cells
Protocol: as §1

KAP = settings: SMN2-NSC34 cells
Protocol: as §1

LAR = settings: SMN2-NSC34 cells
Protocol: as §1

MKP2 = settings: SMN2-NSC34 cells
Protocol: as §1

NCK = settings: SMN2-NSC34 cells
Protocol: as §1

PI3-Kinase = settings: SMN2-NSC34 cells
Protocol: as §1

PTP1B = settings: SMN2-NSC34 cells
Protocol: as §1

PTP1C/SHP1 = settings: SMN2-NSC34 cells
Protocol: as §1

RPTPα = settings: SMN2-NSC34 cells
Protocol: as §1

RPTPβ = settings: SMN2-NSC34 cells
Protocol: as §1

SHC = settings: SMN2-NSC34 cells
Protocol: as §1

ShcC = settings: SMN2-NSC34 cells
Protocol: as §1

ERK1/2 (pT202/pY204) = assay: Signaling pathway screen in SMN2-NSC34 cells; assay type: cell-based, mouse
JNK (pT183/pY185) = assay: Signaling pathway screen in SMN2-NSC34 cells; assay type: cell-based, mouse
Stat2 (pY705) = assay: Signaling pathway screen in SMN2-NSC34 cells; assay type: cell-based, mouse
Stat3 (pY705) = assay: Signaling pathway screen in SMN2-NSC34 cells; assay type: cell-based, mouse
Stat5 (pT694) = assay: Signaling pathway screen in SMN2-NSC34 cells; assay type: cell-based, mouse; set-up: Stat5 (pT694) cellular response: key: −: decreasing; +/−: no activation; +: slight activation; ++: minor activation; +++: significant activation
Protocol: as §1
(§2) Therefore, TSA, aclarubicin and sodium vanadate all induce the activation of Stat5A in motor neuron-like NSC34 cells.

Jak2 (pY1007/pY1008) = assay: Signaling pathway screen in SMN2-NSC34 cells; assay type: cell-based, mouse; for Jak2 (pY1007/pY1008) cellular response: key: −: decreasing; +/−: no activation; +: slight activation; ++: minor activation; +++: significant activation
Protocol: as §1, §2

Substance: Sodium vanadate
- Crk cellular response (Crk; 4 hrs): +/−
- Crk cellular response (Crk; 8 hrs): +/−
- GRB14 cellular response (GRB14; 4 hrs): +/−
- GRB14 cellular response (GRB14; 8 hrs): +/−
- GRB2 cellular response (GRB2; 4 hrs): +/−
- GRB2 cellular response (GRB2; 8 hrs): +/−
- Jak1 (pY1022/pY1023) cellular response (Jak1 (pY1022/pY1023); 4 hrs): +/−
- Jak1 (pY1022/pY1023) cellular response (Jak1 (pY1022/pY1023); 8 hrs): +
- KAP cellular response (KAP; 4 hrs): +/−
- KAP cellular response (KAP; 8 hrs): −
- LAR cellular response (LAR; 4 hrs): +/−
- LAR cellular response (LAR; 8 hrs): +/−
- MKP2 cellular response (MKP2; 4 hrs): −
- MKP2 cellular response (MKP2; 8 hrs): −
- NCK cellular response (NCK; 4 hrs): +/−
- NCK cellular response (NCK; 8 hrs): +/−
- PI3-Kinase cellular response (PI3-Kinase; 4 hrs): +/−
- PI3-Kinase cellular response (PI3-Kinase; 8 hrs): +/−
- PTP1B cellular response (PTP1B; 4 hrs): +/−
- PTP1B cellular response (PTP1B; 8 hrs): −
- PTP1C/SHP1 cellular response (PTP1C/SHP1; 4 hrs): +/−
- PTP1C/SHP1 cellular response (PTP1C/SHP1; 8 hrs): −
- RPTPα cellular response (RPTPα; 4 hrs): +/−
- RPTPα cellular response (RPTPα; 8 hrs): −
- RPTPβ cellular response (RPTPβ; 4 hrs): +/−
- RPTPβ cellular response (RPTPβ; 8 hrs): +/−
- SHC cellular response (SHC; 4 hrs): +/−
- SHC cellular response (SHC; 8 hrs): +/−
- ShcC cellular response (ShcC; 4 hrs): +/−
- ShcC cellular response (ShcC; 8 hrs): +/−
- ERK1/2 (pT202/pY204) cellular response (ERK1/2 (pT202/pY204); 4 hrs): +
- ERK1/2 (pT202/pY204) cellular response (ERK1/2 (pT202/pY204); 8 hrs): ++
- JNK (pT183/pY185) cellular response (JNK (pT183/pY185); 4 hrs): +/−
- JNK (pT183/pY185) cellular response (JNK (pT183/pY185); 8 hrs): +
- Stat2 (pY705) cellular response (Stat2 (pY705); 4 hrs): +/−
- Stat2 (pY705) cellular response (Stat2 (pY705); 8 hrs): +/−
- Stat3 (pY705) cellular response (Stat3 (pY705); 4 hrs): +
- Stat3 (pY705) cellular response (Stat3 (pY705); 8 hrs): ++
- Stat5 (pT694) cellular response (Stat5 (pT694)): ++ and +++
- Stat5 phosphorylation status at 8 hours (Stat5 (pT694)): remained activated
- phosphorylation level of Stat5 increased compared to control cells (Stat5 (pT694)): about 6 fold
- Jak2 (pY1007/pY1008) cellular response (Jak2 (pY1007/pY1008)): + and ++
- Jak2 activation (Jak2 (pY1007/pY1008)): found activated

— patent publication US20080187512A1, “Treatment for spinal muscular atrophy” (Academia Sinica, priority 2007, published 2008)
